In patent US20060035968A1, “Composition for preventing cancer comprising 2'-benzoyl-oxycinnamaldehyde” (Korea Research Institute of Bioscience and Biotechnology, priority 2004, published 2006):
Entries after “also recorded” stand apart in the source; their conditions may differ.

Legend:
[1] = tested on: H-ras 12V-overexpressing mouse; assay: Splenocyte number in H-ras-transgenic mouse; assay type: in vivo; settings: 50 mg/kg i.p. once every two days for 10 weeks, Tg mouse vs control group (NTg), FIG. 3A
Experimental: A neonatal […] H-ras 12V-overexpressing mouse (KCTC 10318 BP) was intraperitoneally administered with 50 mg/kg of BCA and HCA (prepared by extracting the stem bark of C. cassia with organic solvents such as methanol and performing an isolation and purification process by various column chromatography methods) for ten weeks once every two days. Six months after birth, the spleen was excised from the mouse, and a single cell suspension was prepared. Red blood cells were removed from the single cell suspension using a RBC lysis solution (Sigma), and the number of splenocytes was counted under a microscope.

[2] = target: farnesyl-protein transferase (Homo sapiens, UniProt P49356); settings: in vitro; cited from earlier work
[3] = tested on: angiogenesis; settings: J. Biological Chemistry, 279(8), 6911-6920, 2004; cited from earlier work
[4] = tested on: tumor cell growth; settings: J. Biological Chemistry, 279(8), 6911-6920, 2004; cited from earlier work
[5] = tested on: H-ras 12V-overexpressing mouse; assay: Effect of BCA on incidence of liver cancer in H-ras-overexpressing mouse (liver histology); assay type: in vivo
Experimental: A neonatal […] H-ras 12V-overexpressing mouse (KCTC 10318 BP) was intraperitoneally administered with 50 mg/kg of BCA (prepared by reacting 2′-hydroxy-cinnamaldehyde (HCA) isolated from the stem bark of C. cassia with benzoyl chloride in the presence of triethylamine) for ten weeks once every two days. Six months after birth, the liver tissue was excised from the mouse in an aseptic state, fixed with a formaldehyde solution, and embedded in paraffin. The resulting paraffin block was sectioned into a thickness of 4 μm using a microtome (LEICA Company), and tissue sections were attached onto slides. The tissue was then stained with hematoxylin/eosin and observed under a reverse phased microscope (Model: Bx 50, Olympus Company).

[6] = tested on: splenocytes; assay: Splenocyte proliferation by [3H]-thymidine after LPS or ConA stimulation; assay type: cell-based, mouse; settings: splenocytes of treated mice stimulated with ConA, 48 hours, FIG. 3B
Experimental: On the other hand, 2×10^5 splenocytes were aliquotted into a 96-well plate, stimulated with a cell proliferation inducer, LPS (lipopolysaccharide) or ConA (concanavalin A), and cultured for 48 hours. 1 μCi of [^3H]-thymidine was added to each well, followed by incubation for 6 hours. Cells were harvested on a nitrocellulose membrane, and radiation activity was measured using a beta scintillation counter (Wallac, Turku, Finland) to investigate proliferation ability of splenocytes.

[7] = animal test, J. Toxicol. Pub. Health, 2003, 19, 259-266; cited from earlier work
[8] = tested on: human retinal pigment epithelial (hRPE) cells; settings: IOVS, 43(9), 3117-3124, 2002; cited from earlier work
[9] = tested on: proliferative vitreoretinopathy (PVR) model in rabbits; settings: IOVS, 43(9), 3117-3124, 2002; cited from earlier work
[10] = 50 mg/kg i.p. once every two days for ten weeks, six months after birth

| Compound | cell number in the spleen (splenocyte number) [1] | inhibition of farnesyl-protein transferase [2] | inhibition of angiogenesis [3] | inhibition of tumor cell growth [4] | portion progressed to cancer in the liver ([5]; 50 mg/kg i.p. once every two days for ten weeks from 4 months old, liver at six months, vs control FIG. 1A) | number of immune cells in the liver [5, 10] | tumor progression to liver cancer [5, 10] | cell number in the spleen (splenocyte number) ([1]; listed as BSA) | T cell response (splenocyte proliferation) [6] | toxicity in vivo [7] | apoptosis in hRPE cells [8] | antiproliferative effect in PVR model [9] |
| --- | --- | --- | --- | --- | --- | --- | --- | --- | --- | --- | --- | --- |
| O=CC=Cc1ccccc1O [HCA, 2′-hydroxycinnamaldehyde, reference compound] | increased cell number | inhibitory effects | inhibitory effects | inhibitory effects | – | – | – | – | – | – | – | – |
| O=C/C=C/c1ccccc1OC(=O)c1ccccc1 [BCA, 2′-benzoyloxycinnamaldehyde] | increased cell number | inhibit; also recorded: inhibitory effects | inhibitory effects | inhibitory effects | remarkably reduced | increased | inhibited | largest increase | highest T cell response | no toxicity | induces apoptosis | antiproliferative effect |
